Laboratory results reported in US20060069132A1, “Azolecarboxamide herbicides” (priority 2004, published 2006).

Legend:
annual blugrass = assay: Test F pre-/postemergence herbicide test; format: in vivo, Poa annua
Source text: (§1) Seeds of plant species selected from annual blugrass (Poa annua L.), blackgrass (Alopecurus myosuroides Huds.), catchweed bedstraw (Gallium aparine L.), common chickweed (Stellaria media (L.) Vill./Cyr.), downy bromegrass (Bromus tectorum L.), green foxtail (Setaria viridis (L.) Beauv.), Italian ryegrass (Lolium multiflorum Lam.), kochia (Kochia scoparia (L.). Schrad.), lambsquarters (Chenopodium album L.), littleseed canarygrass (Phalaris minor Retz.), pigweed (Amaranthus retroflexus L.), Russian thistle (Salsola kali L. ssp. Ruthenica (Iljin) Soo), wild buckwheat (Polygonum convolvulus L.), wild mustard (Sinapis arvensis L.), wild oat (Avena fatua L.), windgrass (Apera spica-venti (L.) Beauv.), winter barley (Hordeum vulgare L.), and wheat (Triticum aestivum L.) were planted and treated preemergence with test chemicals formulated in a non-phytotoxic solvent mixture which included a surfactant.
(§2) At the same time, plants selected from these crop and weed species were treated with postemergence applications of some of the test chemicals formulated in the same manner. Plants ranged in height from 2 to 18 cm (1- to 4-leaf stage) for postemergence treatments. Treated plants and controls were maintained in a greenhouse for 12 to 14 days, after which time all species were compared to controls and visually evaluated. Plant response ratings, summarized in Table F, are based on a scale of 0 to 100 where 0 is no effect and 100 is complete control. A dash (-) response means no test result.

Russian thistle = assay: Test F pre-/postemergence herbicide test; format: in vivo, Salsola kali
Source text: as §1, §2

wild buckwheat = assay: Test F pre-/postemergence herbicide test; format: in vivo, Polygonum convolvulus
Source text: as §1, §2

blackgrass (ALOMY) = assay: Test J Compounds 2 and 6 alone and in combination with other herbicides, foliage spray; format: in vivo, Alopecurus myosuroides; design: key: 0 = no effect, 100 = complete control; settings: applied alone
Source text: Colby's Equation was used to calculate the expected additive herbicidal effect of the mixtures of Compound 6 with Harmony® Extra (i.e. a 2:1 mixture by weight of thifensulfuron-methyl and tribenuron-methyl). […]
(§3) Seeds of test plants consisting of barnyardgrass (ECHCG; Echinochloa crus-galli (L.) Beauv.), blackgrass (ALOMY; Alopecurus myosuroides Huds.), Surinam grass (BRADC; Urochloa decumbens (Staph) R. D. Webster, previously named Brachiaria decumbens Stapf), cocklebur (XANST, Xanthium strumarium L.), corn (ZEAMD, Zea mays L. cv. ‘Pioneer 33G26’), large crabgrass (DIGSA, Digitaria sanguinalis (L.) Scop.), giant foxtail (SETFA, Setaria faberi Herrm.), lambsquarters (CHEAL, Chenopodium album L.), morningglory (IPOCO, Ipomoea coccinea L.), pigweed (AMARE, Amaranthus retroflexus L.), velvetleaf (ABUTH, Abutilon theophrasti Medik.) wheat (TRZAS, Triticum aestivum L. cv. ‘Recital’) and wild oat (AVEFA, Avena fatua L.) were planted in Redi-Earth® planting medium (Scotts Company, 14111 Scottslawn Road, Marysville, Ohio 43041) comprising spaghnum peat moss and vermiculite. […] Also listed in Table J are the expected effects for the mixtures calculated using Colby's Equation.

morningglory (IPOCO) = assay: as above; format: in vivo, Ipomoea coccinea; design: key: 0 = no effect, 100 = complete control; settings: applied alone
Source text: as §3, with “vermiculite. Seeds of small-seeded species were planted about 1 cm deep; larger seeds were planted about 2.5 cm deep. Plants were grown in a greenhouse using supplemental lighting to maintain a photoperiod of about 14 hours; daytime and nighttime temperatures were about 24-30° C. and 22-25° C., respectively. Balanced fertilizer was applied through the watering system.” for “vermiculite.”

CCn1nc(C(C)(C)C)cc1C(=O)Nc1cc(C(=O)OC(C)C)c(F)cc1F [Compound 248]
Plant response rating (0-100), Bluegrass (annual blugrass; Postemergence, 31 g ai/ha): 50 | Plant response rating (0-100), Bluegrass (annual blugrass; Postemergence, 62 g ai/ha): 50 | Plant response rating (0-100), Bluegrass (annual blugrass; Postemergence, 125 g ai/ha): 60 | Plant response rating (0-100), Bluegrass (annual blugrass; Postemergence, 250 g ai/ha): 70 | Plant response rating (0-100), Bluegrass (annual blugrass; Preemergence, 31 g ai/ha): 70 | Plant response rating (0-100), Bluegrass (annual blugrass; Preemergence, 62 g ai/ha): 70 | Plant response rating (0-100), Bluegrass (annual blugrass; Preemergence, 125 g ai/ha): 100 | Plant response rating (0-100), Bluegrass (annual blugrass; Preemergence, 250 g ai/ha): 100 | Plant response rating (0-100), Thistle (Russian thistle; Postemergence, 31 g ai/ha): 25 | Plant response rating (0-100), Thistle (Russian thistle; Postemergence, 62 g ai/ha): 30 | Plant response rating (0-100), Thistle (Russian thistle; Postemergence, 125 g ai/ha): 30 | Plant response rating (0-100), Thistle (Russian thistle; Postemergence, 250 g ai/ha): 40 | Plant response rating (0-100), Thistle (Russian thistle; Preemergence, 31 g ai/ha): 30 | Plant response rating (0-100), Thistle (Russian thistle; Preemergence, 62 g ai/ha): 30 | Plant response rating (0-100), Thistle (Russian thistle; Preemergence, 125 g ai/ha): 30 | Plant response rating (0-100), Thistle (Russian thistle; Preemergence, 250 g ai/ha): 45 | Plant response rating (0-100), Buckwheat, Wild (wild buckwheat; Postemergence, 31 g ai/ha): 50 | Plant response rating (0-100), Buckwheat, Wild (wild buckwheat; Postemergence, 62 g ai/ha): 50 | Plant response rating (0-100), Buckwheat, Wild (wild buckwheat; Postemergence, 125 g ai/ha): 50 | Plant response rating (0-100), Buckwheat, Wild (wild buckwheat; Postemergence, 250 g ai/ha): 60 | Plant response rating (0-100), Buckwheat, Wild (wild buckwheat; Preemergence, 31 g ai/ha): 30 | Plant response rating (0-100), Buckwheat, Wild (wild buckwheat; Preemergence, 62 g ai/ha): 40 | Plant response rating (0-100), Buckwheat, Wild (wild buckwheat; Preemergence, 125 g ai/ha): 45 | Plant response rating (0-100), Buckwheat, Wild (wild buckwheat; Preemergence, 250 g ai/ha): 60

CCn1nc(C(C)(C)C)cc1C(=O)Nc1cc(C(=O)N(C)C)ccc1F [Compound 6, N-[5-[(dimethylamino)carbonyl]-2-fluorophenyl]-3-(1,1-dimethylethyl)-1-ethyl-1H-pyrazole-5-carboxamide]
ALOMY Obsd. (blackgrass (ALOMY); 62 g a.i./ha): 18 | ALOMY Obsd. (blackgrass (ALOMY); 125 g a.i./ha): 33 | IPOCO Obsd. (morningglory (IPOCO); 62 g a.i./ha): 22 | IPOCO Obsd. (morningglory (IPOCO); 125 g a.i./ha): 28
